Data from patent publication US20130150430A1, “Methods for Impairing the P53/HDM2 Auto-Regulatory Loop in Multiple Myeloma Development Using mIR-192, mIR-194 and mIR-215” (THE OHIO STATE UNIVERSITY, priority 2011, published 2013).

Assays:
[1] = tested on: p53, MDM2, p21 and Puma in MM1s cells; assay: Western blot and densitometry in miRNA-transfected cells treated with MI-219; assay type: cell-based, human; conditions: for p53 protein in cells not treated with MI-219: forced miRNA expression, untreated MM1s cells, p<0.05; for p53 re-expression with p21 and Puma up-regulation: miRNA-transfected MM1s cells, 24 hr of 2.5 μM MI-219
Description: FIG. 5A: Effects of miR-192, miR-194 and miR-215 on endogenous p53, p21 and MDM2 levels (Western blots) in MM1s cells treated with MI-219 at different concentrations.
FIG. 5B: Densitometric analysis only for p53 in untreated cells and for p53 and MDM2 protein levels in 2.5, 5 and 10 μM MI-219-treated cells. All experiments were performed in triplicate ±SD.
Samples were extracted in 15 mM Tris.Cl, pH 7.5/120 mM NaCl/25 mM KCl/2 mM EGTA/0.1 mM DTT/0.5% Triton X-100/[…] leupeptin/0.5 mM PMSF. Total protein (35 μg) from each sample was separated on a 4-20% Tris-HCl-Criterion precast gel Bio-Rad (cat#345-0032, Hercules, Calif.) and transferred to a poly(vinylidene difluoride) filter (Millipore). The filter was blocked in 5% nonfat dry milk, incubated with the specific antibody, washed, and probed with secondary antibody IgG conjugated to horseradish peroxidase (Santa Cruz Biotechnology), and developed with enhanced chemiluminescence (Amersham Pharmacia). Immunoblot analyses were performed using the following antibodies: p53 (sc-53394, Santa Cruz Biotechnology), MDM2 (sc-965, Santa Cruz Biotechnology), phospho-MDM2 (Cat#3521, Cell Signaling), c-MYC (cs-40, Santa Cruz Biotechnology), IGF-1 (sc-9013, Santa Cruz Biotechnology), IGF-1R (Cat#3027, Cell Signaling), total-Akt (Cat#9272, Cell signaling), phospho-Akt (Cat#4060, Cell Signaling), total-S6 (Cat#2217, Cell Signaling), phospho-S6 (Cat#2211, Cell Signaling), p21 (sc-817, Santa Cruz Biotechnology), α-PUMA (Cat#4976, Cell Signaling), GAPDH (Cat#2118, Cell Signaling). Filters were reprobed with enzyme-conjugated antibodies to GFP and β-actin (Santa Cruz Biotechnology).
MM cells (from MM subjects or from cell lines) non-transfected or transfected with pre- or ASOs miR-192, miR-215, miR-194 and Scr sequence as described above, were treated with MDM2 inhibitor (Nutlin3a and MI-219). Fresh CD138+ primary PCs isolated from new diagnosed MM subjects as previously described were maintained in culture for 24 hr and then treated for 24 hr with 10 μM Nutlin-3a (Cayman Chemical Company) or vehicle (DMSO). For transfected cells at 24 hrs after transfection MM cells were treated with 10 μM Nutlin-3a (Cayman Chemical Company) or DMSO vehicle only at different time points. MMIS cells were also treated with MI-219 solution (10% PEG400/3% Cremophor EL/87% 1×PBS) or only vehicle (10% PEG400/3% Cremophor EL/87% 1×PBS) at different concentration (2.5, 5 and 10 μM) for 24 hr and collected for RNA and protein extractions.

[2] = tested on: GFP+/Luc+ MM1S cells; assay: In vivo homing model, iv injected transfected MM1S cells plus weekly iv miRNA; set-up: species or system NOD-SCID mice; conditions: for tumor burden (bioluminescence imaging): 5 wk post-injection, 10 μg iv weekly for 4 wk, vs Scr; for bone marrow engraftment of MM1s (human CD-138+ cells by FACS): 35 days after injection, Scr-treated mice ~25±15%
Description: FIG. 7C: In vivo confocal imaging. 8×10^6GFP+/Luc+ MM1s cells were transfected using either pre-miRNA-192, miR-194, miR-215 and Scr RNA oligos and then iv injected into mice immediately after transfection. After 1 wk the mice were miRNAs iv injected (10 ug) once a wk for 4 wk and the bioluminescence intensity was assessed before every injection.
FIG. 7D: Representative bioluminescence imaging (BLD after 5 wk from the injection.
FIG. 7E: Bone marrow cells from the mice used for the experiment were isolated and human CD-138 positive cells (engrafted cells) were detected using anti-CD-138 antibody by flow cytometry (P2 fraction).
As shown in FIG. 7B and FIG. 21C, IGF-1 (50 ng/ml) stimulated migration of MM cells, MM1s and RPMI-8226. To further examine the role of miRNA-192, miR-215 and miR-194 in MM cells, the inventors investigated the effect of these miRNAs on migration in vivo, using a homing model (Roccaro et al., Blood, 113:6669-6680 (2009)). Nine NOD-SCID mice (for each group) were intravenously injected with 8×10^6 of pre-miRNA-192-, -194 and -215 or Scr probe-transfected GFP^+/Lue^+ MM1S cells. One wk later, mice were iv-injected every week for 4 wk with an individual miRNA or Scr dissolved in PBS (10 μg for each mouse).
Mice were injected with 75 mg/kg of Luciferin (Xenogen, Hopkington, Mass.), and tumor growth was detected by bioluminescence 10 min after the injection. The home-built bioluminescence system used an electron multiplying CCD (Andor Technology Limited, Belfast, United Kingdom) with an exposure time of 30 sec, and an electron multiplication gain of 500 voltage gain×200, 5-by-5 binning, and with background subtraction. Images were analyzed using Image-J software (National Institutes of Health, Bethesda, Md.).
Animal studies were performed according to institutional guidelines. For the sub-cutaneous engraftment model 8 wk old male athymic nu/nu mice (Charles River Laboratories, Wilmington, Mass.) were maintained in accordance with IACUC procedures and guidelines. 8×10^6 of GFP/Luc+MM1s cells were suspended in 0.10 ml of extracellular matrix gel (BD Biosciences) and the mixture was injected subcutaneously into the right flank. […] Measurements of xenograft growth were performed, and tumor volume was estimated using the formula 4/3 a (L*W*H/8). Tumor size was assessed by digital caliper. […] Tumor size was assessed every 7 days by, bioluminescence images. Thirty-five days after injection, mice were analyzed by bioluminescence images and then sacrificed. MM1s bone marrow isolated cells were stained with anti-human CD-138 antibody (BD) and analyzed by FACS analysis. Statistical significance of differences between control and treated animals was evaluated using Student's t test. […]

Substance | p53 protein in cells not treated with MI-219 [1] | p53 re-expression with p21 and Puma up-regulation [1] | tumor burden (bioluminescence imaging) [2] | bone marrow engraftment of MM1s (human CD-138+ cells by FACS) [2]
miR-192: microRNA, p53-activated, down-regulated in MM; transfected as miRNA precursor (Ambion) or lentivector; SEQ ID NO:56 (CUGACCUAUGAAUUGACAGCC; listed as RNA, chemistry not given here; listed as Homo sapiens) | p53 became detectable | Dramatic p53 re-expression | nearly nonexistent | 4±2%
miR-215: microRNA, p53-activated, down-regulated in MM; transfected as miRNA precursor (Ambion) or lentivector; SEQ ID NO:58 (AUGACCUAUGAAUUGACAGAC; listed as RNA, chemistry not given here; listed as Homo sapiens) | p53 became detectable | Dramatic p53 re-expression | nearly nonexistent | 2±2%
